The text below walks through data of patent US11548868B2, “Heterocyclic compounds, compositions comprising heterocyclic compound, and methods of use thereof” (JS INNOPHARM (SHANGHAI) LTD, priority 2017, dated 2023).

Molecules are shown by their SMILES. pIC50: −log10 of the molar value.

For test [1], the target named is T1, TDO2 in A172 cancer cells (Homo sapiens, UniProt P48775).
T1 construct: endogenous in cells; host or cells: A172 cancer cells
Nature of the test: TDO2 Cellular Assay (kynurenine production in A172 cancer cells). Type of test: cell-based. The note with it: L-Trp 1 mM, 24 hours incubation, kynurenine at 490 nm. A digest of the protocol:
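Kynurenine output of A172 cells was read colorimetrically at 490 nm (Ehrlich reagent after TCA hydrolysis at 50 °C). Cells had 1 mM L-Trp plus compound at 0–25 μM in 0.25% DMSO for 24 h; IC50 values were fitted non-linearly from percent inhibition relative to vehicle.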

Test [2] concerns the target T2, IDO1 in Hela cancer cells (Homo sapiens, UniProt P14902).
T2 construct: endogenous in cells; host or cells: Hela cancer cells stimulated with human IFN-γ
Nature of the test: IDO1 Cellular Assay (kynurenine production in IFN-γ stimulated Hela cancer cells). The note with it: human IFN-γ 50 ng/mL, 48 hours incubation, kynurenine at 490 nm. Type of test: cell-based. A digest of the protocol:
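HeLa cells stimulated with 50 ng/mL IFN-γ (final) and treated 48 h with compound (0–25 μM final, 0.25% DMSO). Supernatant kynurenine measured after TCA hydrolysis and p-dimethylaminobenzaldehyde reaction at 490 nm; inhibition vs DMSO control, IC50 by non-linear regression.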

T2 sequence (P14902 whole entry): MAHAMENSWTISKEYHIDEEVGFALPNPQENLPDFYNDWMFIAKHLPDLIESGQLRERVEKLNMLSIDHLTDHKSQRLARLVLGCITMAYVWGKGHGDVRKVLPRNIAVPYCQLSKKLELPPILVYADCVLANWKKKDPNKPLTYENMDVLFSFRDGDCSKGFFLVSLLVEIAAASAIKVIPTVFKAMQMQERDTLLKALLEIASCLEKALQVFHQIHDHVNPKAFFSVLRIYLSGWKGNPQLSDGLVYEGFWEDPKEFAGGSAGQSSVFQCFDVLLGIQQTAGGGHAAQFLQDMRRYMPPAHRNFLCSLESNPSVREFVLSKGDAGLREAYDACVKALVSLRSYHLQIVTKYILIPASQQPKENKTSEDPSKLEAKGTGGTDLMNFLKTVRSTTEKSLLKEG
T1 sequence (P48775 whole entry): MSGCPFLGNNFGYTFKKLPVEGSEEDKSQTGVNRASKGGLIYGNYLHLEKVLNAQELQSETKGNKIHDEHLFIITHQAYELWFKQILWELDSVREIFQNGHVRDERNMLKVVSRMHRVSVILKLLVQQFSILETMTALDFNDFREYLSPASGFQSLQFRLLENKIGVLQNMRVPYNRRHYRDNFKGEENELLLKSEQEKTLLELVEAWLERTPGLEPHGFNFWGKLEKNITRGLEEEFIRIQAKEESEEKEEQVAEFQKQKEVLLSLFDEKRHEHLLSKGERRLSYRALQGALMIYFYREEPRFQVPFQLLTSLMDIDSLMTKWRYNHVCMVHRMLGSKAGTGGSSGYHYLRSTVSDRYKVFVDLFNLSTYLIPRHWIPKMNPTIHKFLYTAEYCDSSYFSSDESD

With `CCNC(=O)N[C@H]1[C@@H]2C[C@@](O)(c3cc(Cl)cc4[nH]ncc34)C[C@@H]21` [Example 125, 1-((1R,3r,5S,6r)-3-(6-chloro-1H-indazol-4-yl)-3-hydroxybicyclo[3.1.0]hexan-6-yl)-3-ethylurea], the pIC50 in test [1] was no less than 6.30; in test [2] it was less than 5.30.

On to `O=C(NC1CCCCC1)N[C@H]1[C@@H]2C[C@@](O)(c3cc(Cl)cc4[nH]ncc34)C[C@@H]21` [Example 126, 1-((1R,3r,5S,6r)-3-(6-chloro-1H-indazol-4-yl)-3-hydroxybicyclo[3.1.0]hexan-6-yl)-3-cyclohexylurea], for which the figures for the pIC50 in test [1] and in test [2] were no less than 6.30 and less than 5.30, respectively.

Consider `COc1ccccc1-c1c[nH]cc1C(=O)N[C@H]1[C@@H]2C[C@@](O)(c3cc(Cl)cc4[nH]ncc34)C[C@@H]21` [Example 127, N-((1R,3r,5S,6r)-3-(6-chloro-1H-indazol-4-yl)-3-hydroxybicyclo[3.1.0]hexan-6-yl)-4-(2-methoxyphenyl)-1H-pyrrole-3-carboxamide], for which the figures for the pIC50 in test [1] and in test [2] were no less than 6.30 and less than 5.30, respectively.

As for `CCNS(=O)(=O)N[C@H]1[C@@H]2C[C@@](O)(c3cc(Cl)cc4[nH]ncc34)C[C@@H]21` [Example 128, N′-ethyl-N-((1R,3r,5S,6r)-3-(6-chloro-1H-indazol-4-yl)-3-hydroxybicyclo[3.1.0]hexan-6-yl)sulfuric diamide], the values for the pIC50 in test [1] and in test [2] were no less than 6.30 and 6.00 to 6.30, respectively.

Consider `O=C(N[C@H]1[C@@H]2C[C@@](O)(c3cc(Cl)cc4cn[nH]c34)C[C@@H]21)c1ccccc1` [Example 129, N-((1R,3r,5S,6r)-3-(5-chloro-1H-indazol-7-yl)-3-hydroxybicyclo[3.1.0]hexan-6-yl)benzamide], for which the pIC50 in test [1] and in test [2] was 5.30 to 6.00 throughout.

In the case of `O=C(N[C@H]1[C@@H]2C[C@@](O)(c3cc(Cl)cc4cn[nH]c34)C[C@@H]21)c1ccncc1` [Example 130, N-((1R,3r,5S,6r)-3-(5-chloro-1H-indazol-7-yl)-3-hydroxybicyclo[3.1.0]hexan-6-yl)isonicotinamide], the pIC50 in test [1] was 5.30 to 6.00; in test [2] it was 6.00 to 6.30.

For the molecule `O=S(=O)(N[C@H]1[C@@H]2C[C@@](O)(c3cc(Cl)cc4cn[nH]c34)C[C@@H]21)c1ccccc1` [Example 131, N-((1R,3r,5S,6r)-3-(5-chloro-1H-indazol-7-yl)-3-hydroxybicyclo[3.1.0]hexan-6-yl)benzenesulfonamide], the pIC50 was 5.30 to 6.00 in test [1] and less than 5.30 in test [2].

As for `O=C(Nc1ccccc1)N[C@H]1[C@@H]2C[C@@](O)(c3cc(Cl)cc4cn[nH]c34)C[C@@H]21` [Example 132, 1-((1R,3r,5S,6r)-3-(5-chloro-1H-indazol-7-yl)-3-hydroxybicyclo[3.1.0]hexan-6-yl)-3-phenylurea], the pIC50 in test [1] was 6.00 to 6.30; in test [2] it was 5.30 to 6.00.

Consider `CNC(=O)N[C@H]1[C@@H]2C[C@@](O)(c3cc(Cl)cc4cn[nH]c34)C[C@@H]21` [Example 133, 1-((1R,3r,5S,6r)-3-(5-chloro-1H-indazol-7-yl)-3-hydroxybicyclo[3.1.0]hexan-6-yl)-3-methylurea], for which the negative-log IC50 (pIC50) in test [1] was 5.30 to 6.00; in test [2], less than 5.30.

For `O=C(c1nc2cc(Cl)ccc2[nH]1)N1C[C@@H]2C[C@@](O)(c3cc(Cl)cc4[nH]ncc34)C[C@@H]2C1` [Example 134, (5-chloro-1H-benzo[d]imidazol-2-yl)((3aR,5r,6aS)-5-(6-chloro-1H-indazol-4-yl)-5-hydroxyhexahydrocyclopenta[c]pyrrol-2(1H)-yl)methanone], the pIC50 was no less than 6.30 in test [1] and 5.30 to 6.00 in test [2].

As for `NC(=O)N[C@H]1[C@@H]2C[C@@](O)(c3cc(Cl)cc4[nH]ncc34)C[C@@H]21` [Example 135, 1-((1R,3r,5S,6r)-3-(6-chloro-1H-indazol-4-yl)-3-hydroxybicyclo[3.1.0]hexan-6-yl)urea], the pIC50 in test [1] is no less than 6.30; in test [2], less than 5.30.

As for `O=C(N[C@H]1[C@@H]2C[C@@](O)(c3cc(Cl)cc4[nH]ncc34)C[C@@H]21)c1nc2cc(Cl)ccc2[nH]1` [Example 136, 5-chloro-N-((1R,3r,5S,6r)-3-(6-chloro-1H-indazol-4-yl)-3-hydroxybicyclo[3.1.0]hexan-6-yl)-1H-benzo[d]imidazole-2-carboxamide], the pIC50 in test [1] is no less than 6.30; in test [2], 5.30 to 6.00.

`N#CCC(=O)N[C@H]1[C@@H]2C[C@@](O)(c3cc(Cl)cc4[nH]ncc34)C[C@@H]21` [Example 137, N-((1R,3r,5S,6r)-3-(6-chloro-1H-indazol-4-yl)-3-hydroxybicyclo[3.1.0]hexan-6-yl)-2-cyanoacetamide]: the results for the pIC50 in test [1] and in test [2] were no less than 6.30 and 5.30 to 6.00, respectively.

Regarding `O=C(CC(F)(F)F)N[C@H]1[C@@H]2C[C@@](O)(c3cc(Cl)cc4[nH]ncc34)C[C@@H]21` [Example 138, N-((1R,3r,5S,6r)-3-(6-chloro-1H-indazol-4-yl)-3-hydroxybicyclo[3.1.0]hexan-6-yl)-3,3,3-trifluoropropanamide], the figures for the pIC50 in test [1] and in test [2] were no less than 6.30 and less than 5.30, respectively.

In the case of `O=S(=O)(CC(F)(F)F)N[C@H]1[C@@H]2C[C@@](O)(c3cc(Cl)cc4[nH]ncc34)C[C@@H]21` [Example 139, N-((1R,3r,5S,6r)-3-(6-chloro-1H-indazol-4-yl)-3-hydroxybicyclo[3.1.0]hexan-6-yl)-2,2,2-trifluoroethanesulfonamide], the pIC50 in test [1] is no less than 6.30; in test [2], 6.00 to 6.30.

On to `NS(=O)(=O)N[C@H]1[C@@H]2C[C@@](O)(c3cc(Cl)cc4[nH]ncc34)C[C@@H]21` [Example 140, N-((1R,3r,5S,6r)-3-(6-chloro-1H-indazol-4-yl)-3-hydroxybicyclo[3.1.0]hexan-6-yl)sulfuric diamide], for which the pIC50 in test [1] and in test [2] was no less than 6.30 each time.

As for `CS(=O)(=O)Nc1cccc(C(=O)N[C@H]2[C@@H]3C[C@@](O)(c4cc(Cl)cc5[nH]ncc45)C[C@@H]32)c1` [Example 141, N-((1R,3r,5S,6r)-3-(6-chloro-1H-indazol-4-yl)-3-hydroxybicyclo[3.1.0]hexan-6-yl)-3-(methylsulfonamido)benzamide], the pIC50 in test [1] was 6.00 to 6.30; in test [2] it was less than 5.30.

For `O=C(N[C@H]1[C@@H]2C[C@@](O)(c3cc(Cl)cc4[nH]ncc34)C[C@@H]21)c1cccc(C(F)(F)F)c1` [Example 142, N-((1R,3r,5S,6r)-3-(6-chloro-1H-indazol-4-yl)-3-hydroxybicyclo[3.1.0]hexan-6-yl)-3-(trifluoromethyl)benzamide], the pIC50 in test [1] and in test [2] was no less than 6.30 each time.

With `O=C(N[C@H]1[C@@H]2C[C@@](O)(c3cc(Cl)cc4[nH]ncc34)C[C@@H]21)c1cccc(F)c1` [Example 143, N-((1R,3r,5S,6r)-3-(6-chloro-1H-indazol-4-yl)-3-hydroxybicyclo[3.1.0]hexan-6-yl)-3-fluorobenzamide], the pIC50 in test [1] and in test [2] was no less than 6.30 throughout.

Turning to `N#Cc1cccc(C(=O)N[C@H]2[C@@H]3C[C@@](O)(c4cc(Cl)cc5[nH]ncc45)C[C@@H]32)c1` [Example 144, N-((1R,3r,5S,6r)-3-(6-chloro-1H-indazol-4-yl)-3-hydroxybicyclo[3.1.0]hexan-6-yl)-3-cyanobenzamide], the pIC50 in test [1] and in test [2] was no less than 6.30 throughout.

`O=C(N[C@H]1[C@@H]2C[C@@](O)(c3cc(Cl)cc4[nH]ncc34)C[C@@H]21)c1cccc(OC(F)(F)F)c1` [Example 145, N-((1R,3r,5S,6r)-3-(6-chloro-1H-indazol-4-yl)-3-hydroxybicyclo[3.1.0]hexan-6-yl)-3-(trifluoromethoxy)benzamide]: the pIC50 in test [1] and in test [2] was no less than 6.30 throughout.

As to `O=C(N[C@H]1[C@@H]2C[C@@](O)(c3cc(Cl)cc4[nH]ncc34)C[C@@H]21)c1cccc(Br)c1` [Example 146, 3-bromo-N-((1R,3r,5S,6r)-3-(6-chloro-1H-indazol-4-yl)-3-hydroxybicyclo[3.1.0]hexan-6-yl)benzamide], the pIC50 in test [1] and in test [2] was no less than 6.30 in each case.

Regarding `O=C(Nc1ccc(F)cc1)N[C@H]1[C@@H]2C[C@@](O)(c3cc(Cl)cc4[nH]ncc34)C[C@@H]21` [Example 147, 1-((1R,3r,5S,6r)-3-(6-chloro-1H-indazol-4-yl)-3-hydroxybicyclo[3.1.0]hexan-6-yl)-3-(4-fluorophenyl)urea], the pIC50 in test [1] is no less than 6.30; in test [2], 5.30 to 6.00.

On to `O=C(N[C@H]1[C@@H]2C[C@@](O)(c3cc(Cl)cc4[nH]ncc34)C[C@@H]21)c1cccnc1` [Example 148, N-((1R,3r,5S,6r)-3-(6-chloro-1H-indazol-4-yl)-3-hydroxybicyclo[3.1.0]hexan-6-yl)nicotinamide], for which the pIC50 in test [1] and in test [2] was no less than 6.30 each time.

For `O=C(Cc1ccc(Cl)cc1)N[C@H]1[C@@H]2C[C@@](O)(c3cc(Cl)cc4[nH]ncc34)C[C@@H]21` [Example 149, N-((1R,3r,5S,6r)-3-(6-chloro-1H-indazol-4-yl)-3-hydroxybicyclo[3.1.0]hexan-6-yl)-2-(4-chlorophenyl)acetamide], the pIC50 in test [1] and in test [2] was no less than 6.30 throughout.

Take `O=C(N[C@H]1[C@@H]2C[C@@](O)(c3cc(Cl)cc4[nH]ncc34)C[C@@H]21)c1ccc(F)c(Cl)c1` [Example 150, 3-chloro-N-((1R,3r,5S,6r)-3-(6-chloro-1H-indazol-4-yl)-3-hydroxybicyclo[3.1.0]hexan-6-yl)-4-fluorobenzamide]: the pIC50 in test [1] and in test [2] was no less than 6.30 in each case.

As usually defined, the pIC50 is the IC50 on a negative log10 scale, so that one unit is a factor of ten.
